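48-hour exposure; five concentrations; linearly interpolated endpoints. The concentration for 50% growth inhibition is given as GI50.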 The source made the active and inactive calls. Cut-off read from the data, not from the text of the source: active = GI50 up to about 1.1 µM and inactive = higher.
Tests used:
Assay in all cases: inhibition of tumour cell growth, NCI panel, 48 h
[1] = test system: A549
[2] = test system: SK-MEL-2
[3] = test system: NCI-H522
[4] = test system: PC-3
[5] = test system: NCI-H460
[6] = test system: UO-31
[7] = test system: HL-60
[8] = test system: NCI-H23
[9] = test system: NCI/ADR-RES
[10] = test system: U-251
[11] = test system: MCF7
[12] = test system: SNB-19
[13] = test system: HOP-92
[14] = test system: A498
[15] = test system: IGROV-1
[16] = test system: 786-0
[17] = test system: MDA-MB-231
[18] = test system: RPMI-8226
[19] = test system: MDA-MB-435
[20] = test system: CCRF-CEM

Row | Compound | GI50 [1] | GI50 [2] | GI50 [3] | GI50 [4] | GI50 [5] | GI50 [6] | GI50 [7] | GI50 [8] | GI50 [9] | GI50 [10] | GI50 [11] | GI50 [12] | GI50 [13] | GI50 [14] | GI50 [15] | GI50 [16] | GI50 [17] | GI50 [18] | GI50 [19] | GI50 [20]
1 | Sc1nn2c(COc3cccc(OCc4nnc5sc(S)nn45)c3)nnc2s1 | > 100 µM (inactive) | > 100 µM (inactive) | 64.6 µM (inactive) | > 100 µM (inactive) | 31.8 µM (inactive) | > 100 µM (inactive) | 7.08 µM (inactive) | > 100 µM (inactive) | > 100 µM (inactive) | > 100 µM (inactive) | 76.2 µM (inactive) | > 100 µM (inactive) | > 100 µM (inactive) | > 100 µM (inactive) | > 100 µM (inactive) | 41.4 µM (inactive) | > 100 µM (inactive) | 73.5 µM (inactive) | > 100 µM (inactive) | 28.2 µM (inactive)
2 | COc1ccc(C(NCCNC(c2ccc(OC)c(OC)c2)c2cc3c(cc2O)OCO3)c2cc3c(cc2O)OCO3)cc1OC (stereo not given) | 12.2 µM (inactive) | 6.81 µM (inactive) | 1.74 µM (inactive) | 2.47 µM (inactive) | 4.35 µM (inactive) | 2.8 µM (inactive) | 1.71 µM (inactive) | 2.51 µM (inactive) | 2.13 µM (inactive) | 2.87 µM (inactive) | 1.42 µM (inactive) | 4.06 µM (inactive) | 6.71 µM (inactive) | 7.45 µM (inactive) | 2.72 µM (inactive) | 1.82 µM (inactive) | 3.13 µM (inactive) | 2 µM (inactive) | 1.87 µM (inactive) | 0.141 µM (active)
3 | C[N+](C)(N)CCC[N+](C)(C)N | > 100 µM (inactive) | > 100 µM (inactive) | > 100 µM (inactive) | > 100 µM (inactive) | > 100 µM (inactive) | > 100 µM (inactive) | > 100 µM (inactive) | > 100 µM (inactive) | > 100 µM (inactive) | > 100 µM (inactive) | > 100 µM (inactive) | > 100 µM (inactive) | > 100 µM (inactive) | > 100 µM (inactive) | > 100 µM (inactive) | > 100 µM (inactive) | > 100 µM (inactive) | > 100 µM (inactive) | > 100 µM (inactive) | > 100 µM (inactive)
4 | CN(CCNC(=O)c1nn(-c2ccccc2)c2c1ccc1ccccc12)CCNC(=O)c1nn(-c2ccccc2)c2c1ccc1ccccc12 | 2.94 µM (inactive) | 1.86 µM (inactive) | 2.04 µM (inactive) | 2.13 µM (inactive) | 1.41 µM (inactive) | 2.07 µM (inactive) | 1.95 µM (inactive) | 2.51 µM (inactive) | 2.55 µM (inactive) | 1.57 µM (inactive) | 1.98 µM (inactive) | 2.54 µM (inactive) | 1.73 µM (inactive) | 2 µM (inactive) | 1.98 µM (inactive) | 1.67 µM (inactive) | 1.29 µM (inactive) | 0.202 µM (active) | 1.97 µM (inactive) | 2.9 µM (inactive)
5 | Cc1cc(N(CCC#N)CCC#N)ccc1C(=N/NC(=O)c1cc(Cl)ccc1O)/N=N/c1cccc([N+](=O)[O-])c1 | 28 µM (inactive) | 21.7 µM (inactive) | 17.3 µM (inactive) | 22.1 µM (inactive) | 25 µM (inactive) | 17.6 µM (inactive) | 14.7 µM (inactive) | 22.6 µM (inactive) | 23 µM (inactive) | 35.9 µM (inactive) | 16.7 µM (inactive) | 26.5 µM (inactive) | 38.2 µM (inactive) | 15.5 µM (inactive) | 11.3 µM (inactive) | 29 µM (inactive) | 14.5 µM (inactive) | 12.4 µM (inactive) | 35.4 µM (inactive) | 5.68 µM (inactive)
6 | CC(=O)OCC1=C(C)C[C@H]([C@@H](COC(C)=O)C2CCC3C4C[C@H]5O[C@]56CC=CC(=O)[C@]6(C)C4CC[C@@]32C)OC1=O (stereo not given in full) | 1.39 µM (inactive) | 0.716 µM (active) | 0.134 µM (active) | 0.417 µM (active) | 0.929 µM (active) | 0.993 µM (active) | 0.0384 µM (active) | 0.37 µM (active) | 0.185 µM (active) | 0.329 µM (active) | 0.00955 µM (active) | 0.681 µM (active) | 0.352 µM (active) | 0.624 µM (active) | 0.184 µM (active) | 0.19 µM (active) | 0.376 µM (active) | 0.0393 µM (active) | 0.153 µM (active) | 0.0191 µM (active)
7 | COc1ccc(-n2c(=O)[nH]n(C(C)=O)c2=O)cc1 | > 100 µM (inactive) | > 100 µM (inactive) | > 100 µM (inactive) | > 100 µM (inactive) | > 100 µM (inactive) | > 100 µM (inactive) | > 100 µM (inactive) | > 100 µM (inactive) | > 100 µM (inactive) | > 100 µM (inactive) | > 100 µM (inactive) | > 100 µM (inactive) | > 100 µM (inactive) | > 100 µM (inactive) | > 100 µM (inactive) | > 100 µM (inactive) | > 100 µM (inactive) | > 100 µM (inactive) | > 100 µM (inactive) | > 100 µM (inactive)
8 | Cc1ccc2nc(-n3c(/C=C/c4ccccc4O)nc4ccccc4c3=O)sc2c1 | > 100 µM (inactive) | > 100 µM (inactive) | > 100 µM (inactive) | > 100 µM (inactive) | > 100 µM (inactive) | > 100 µM (inactive) | > 100 µM (inactive) | > 100 µM (inactive) | > 100 µM (inactive) | > 100 µM (inactive) | > 100 µM (inactive) | > 100 µM (inactive) | > 100 µM (inactive) | > 100 µM (inactive) | > 100 µM (inactive) | > 100 µM (inactive) | > 100 µM (inactive) | 76.4 µM (inactive) | > 100 µM (inactive) | 16.5 µM (inactive)
9 | c1ccc2c(c1)nnn2C1CCCCO1 (stereo not given) | > 100 µM (inactive) | > 100 µM (inactive) | > 100 µM (inactive) | > 100 µM (inactive) | > 100 µM (inactive) | > 100 µM (inactive) | > 100 µM (inactive) | > 100 µM (inactive) | > 100 µM (inactive) | > 100 µM (inactive) | > 100 µM (inactive) | > 100 µM (inactive) | > 100 µM (inactive) | > 100 µM (inactive) | > 100 µM (inactive) | > 100 µM (inactive) | > 100 µM (inactive) | > 100 µM (inactive) | > 100 µM (inactive) | > 100 µM (inactive)
10 | Cc1cc(C)nc(NS(=O)(=O)c2ccc(NC(=O)c3ccc4nc5ccccc5c(Nc5ccc(S(=O)(=O)Nc6nc(C)cc(C)n6)cc5)c4c3)cc2)n1 | > 100 µM (inactive) | 36.2 µM (inactive) | 25.5 µM (inactive) | 59.7 µM (inactive) | 88.5 µM (inactive) | > 100 µM (inactive) | 33 µM (inactive) | 34 µM (inactive) | > 100 µM (inactive) | 35.3 µM (inactive) | 37.8 µM (inactive) | > 100 µM (inactive) | 23 µM (inactive) | > 100 µM (inactive) | 52.5 µM (inactive) | > 100 µM (inactive) | 20.8 µM (inactive) | 37.2 µM (inactive) | > 100 µM (inactive) | 36.6 µM (inactive)
11 | COc1ccc2c(c1)CCN=C2c1ccccc1CCCCl | 24.2 µM (inactive) | 28 µM (inactive) | 11.5 µM (inactive) | 17 µM (inactive) | 13.6 µM (inactive) | 10 µM (inactive) | 11.4 µM (inactive) | 4.85 µM (inactive) | 26.4 µM (inactive) | 71.6 µM (inactive) | 23.1 µM (inactive) | 7.67 µM (inactive) | 26.7 µM (inactive) | 49.1 µM (inactive) | 20.1 µM (inactive) | 38.4 µM (inactive) | 19 µM (inactive) | 1.84 µM (inactive) | 38.7 µM (inactive) | 41.4 µM (inactive)
12 | COC1(OC)C(/C(N)=C\O)=NC(C)(C)N1O | > 100 µM (inactive) | > 100 µM (inactive) | > 100 µM (inactive) | > 100 µM (inactive) | > 100 µM (inactive) | > 100 µM (inactive) | 20.4 µM (inactive) | > 100 µM (inactive) | > 100 µM (inactive) | > 100 µM (inactive) | 74.6 µM (inactive) | > 100 µM (inactive) | > 100 µM (inactive) | > 100 µM (inactive) | > 100 µM (inactive) | > 100 µM (inactive) | > 100 µM (inactive) | > 100 µM (inactive) | > 100 µM (inactive) | 37.1 µM (inactive)
13 | COc1ccc(C2C3=C(COC3=O)OC(C)(C)Oc3cc4c(cc32)OCO4)cc1OC (stereo not given) | 36.8 µM (inactive) | 34.4 µM (inactive) | 32.4 µM (inactive) | 28.1 µM (inactive) | 37.1 µM (inactive) | 47.9 µM (inactive) | 29.2 µM (inactive) | 36.8 µM (inactive) | 19.9 µM (inactive) | 39.1 µM (inactive) | 40.1 µM (inactive) | 44.4 µM (inactive) | 37.5 µM (inactive) | 23.1 µM (inactive) | 36.9 µM (inactive) | 41.9 µM (inactive) | 33.8 µM (inactive) | 41.6 µM (inactive) | 17.3 µM (inactive) | 37.1 µM (inactive)
14 | O=[N+]([O-])c1ccc2c(c1)C1=NN(c3ccccc3)C(c3ccccc3Br)C1CCC2 (stereo not given) | 28.1 µM (inactive) | 24.7 µM (inactive) | 13.3 µM (inactive) | 31.2 µM (inactive) | 22.6 µM (inactive) | 20.6 µM (inactive) | 7.64 µM (inactive) | 18.7 µM (inactive) | 12.7 µM (inactive) | 25.3 µM (inactive) | 11.2 µM (inactive) | 25.7 µM (inactive) | 14.6 µM (inactive) | 12.1 µM (inactive) | 27.5 µM (inactive) | > 50 µM (inactive) | 36.3 µM (inactive) | 6.85 µM (inactive) | 15 µM (inactive) | 2.19 µM (inactive)

From ChEMBL document CHEMBL1201862, “PubChem BioAssay data set” (2004)
